Measured values as given in ChEMBL document CHEMBL1201862, “PubChem BioAssay data set” (2004).
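Five concentrations, 48 hours, 96-well plates. Here, GI50 denotes the concentration required for 50% inhibition of growth.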 Activity calls are given as the source filed them. Rule as the data show it: active = GI50 up to about 1.1 µM and inactive = higher.

Legend:
Test in all cases: NCI tumour cell line growth inhibition, 48 h
K562 = test system: K562
SF-295 = test system: SF-295
SK-MEL-5 = test system: SK-MEL-5
HOP-92 = test system: HOP-92
CAKI-1 = test system: CAKI-1
M14 = test system: M14
NCI-H226 = test system: NCI-H226
OVCAR-8 = test system: OVCAR-8
SF-268 = test system: SF-268
NCI-H460 = test system: NCI-H460
HOP-62 = test system: HOP-62
OVCAR-3 = test system: OVCAR-3
ACHN = test system: ACHN
OVCAR-4 = test system: OVCAR-4
NCI-H522 = test system: NCI-H522
A498 = test system: A498
SN12C = test system: SN12C
Malme-3M = test system: Malme-3M

Measured: GI50

CC(=O)OC1COC(N2CCc3cc([N+](=O)[O-])ccc32)C(OC(C)=O)C1OC(C)=O (stereo unspecified)
inactive: K562 > 100 µM | SF-295 > 100 µM | SK-MEL-5 > 100 µM | HOP-92 36 µM | CAKI-1 > 100 µM | M14 > 100 µM | NCI-H226 63.7 µM | OVCAR-8 > 100 µM | SF-268 > 100 µM | NCI-H460 > 100 µM | HOP-62 > 100 µM | OVCAR-3 > 100 µM | ACHN > 100 µM | OVCAR-4 > 100 µM | NCI-H522 > 100 µM | A498 7.23 µM

CC(=O)OC1(C#N)CC2OC1C1C2N1C(=O)c1ccccc1 (stereo unspecified)
inactive: K562 > 100 µM | SN12C > 100 µM | SK-MEL-5 > 100 µM | HOP-92 > 100 µM | CAKI-1 > 100 µM | M14 > 100 µM | NCI-H226 > 100 µM | Malme-3M > 100 µM | OVCAR-8 > 100 µM | SF-268 > 100 µM | NCI-H460 > 100 µM | HOP-62 > 100 µM | ACHN > 100 µM | OVCAR-4 > 100 µM | NCI-H522 > 100 µM | A498 > 100 µM

CCCCN[C@H]1C2C3CC4C5CC(C42)C1(C)C53 (stereo partly specified)
inactive: K562 > 100 µM | SN12C > 100 µM | SF-295 > 100 µM | SK-MEL-5 > 100 µM | HOP-92 > 100 µM | CAKI-1 > 100 µM | M14 > 100 µM | NCI-H226 > 100 µM | Malme-3M > 100 µM | SF-268 > 100 µM | NCI-H460 > 100 µM | HOP-62 > 100 µM | OVCAR-3 > 100 µM | ACHN > 100 µM | OVCAR-4 > 100 µM | NCI-H522 > 100 µM | A498 > 100 µM

C=CCN(N=O)C(=O)NCCCCC(NC(C)=O)C(=O)NCc1ccccc1 (stereo unspecified)
inactive: K562 > 100 µM | SN12C > 100 µM | SF-295 > 100 µM | SK-MEL-5 > 100 µM | HOP-92 > 100 µM | CAKI-1 > 100 µM | M14 > 100 µM | NCI-H226 42.5 µM | Malme-3M > 100 µM | OVCAR-8 > 100 µM | SF-268 > 100 µM | NCI-H460 > 100 µM | HOP-62 > 100 µM | OVCAR-3 > 100 µM | ACHN > 100 µM | OVCAR-4 > 100 µM | NCI-H522 > 100 µM | A498 > 100 µM

COc1ccc(C2=C(Cl)c3cc(OC)c(OC)cc3C2OC)cc1OC (stereo unspecified)
inactive: K562 5.74 µM | SN12C > 100 µM | SF-295 > 100 µM | SK-MEL-5 > 100 µM | HOP-92 > 100 µM | CAKI-1 > 100 µM | M14 > 100 µM | NCI-H226 > 100 µM | Malme-3M > 100 µM | OVCAR-8 > 100 µM | SF-268 > 100 µM | NCI-H460 > 100 µM | HOP-62 > 100 µM | ACHN > 100 µM | OVCAR-4 > 100 µM | NCI-H522 3.25 µM | A498 > 100 µM

O=NN(CCCl)C(=O)N[C@H]1CCCC[C@@H]1Cl
inactive: K562 55.8 µM | SN12C 88.1 µM | SF-295 47.1 µM | SK-MEL-5 > 100 µM | HOP-92 > 100 µM | CAKI-1 > 100 µM | M14 > 100 µM | NCI-H226 > 100 µM | Malme-3M > 100 µM | OVCAR-8 > 100 µM | SF-268 16.7 µM | NCI-H460 29.4 µM | OVCAR-3 > 100 µM | ACHN 57.7 µM | OVCAR-4 > 100 µM | NCI-H522 > 100 µM | A498 > 100 µM
